{"source": "PubChem BioAssay AID1963825", "about": "(Molecular Pharmacology Branch, DTP, NCI, 2024);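 note: luminescence signal used as a surrogate for viable cells; spheroids exposed to drugs for seven days before readout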", "assay": "Anticancer human tumor 997537-175-T-J1-PDC patient-derived colon adenocarcinoma cell line growth inhibition [POLQ]", "conditions": "997537-175-T-J1-PDC complex spheroid viability, combination with POLQ inhibitors; for IC50: curve of first compound; for viability, T/C: stronger effect = lower value", "method": "Multicellular complex tumor spheroid response to Polymerase (POL) inhibitors (novobiocin, ART-558, RP6685) in combination with a variety of drugs and investigational agents in selected tumor cell lines\nThe POL inhibitors (novobiocin, ART-558, and RP6685) were evaluated both individually and in combination with standard of care and investigational anticancer small molecules within a complex spheroid model of solid tumors. . Complex spheroids include a stromal component modeled by human endothelial cells (HUVEC) and fibroblasts modeled by human mesenchymal stem cells (MSCs). The concentration ranges selected for each drug and investigational agent were based upon clinically achievable concentrations if the clinical Cmax of the agent was known.\nCompounds. The drugs and investigational agents: novobiocin (NSC847541), ART-558 (NSC835418), RP-6685 (NSC848927), peposertib (NSC802822), ceralasertib (NSC780249), elimusertib (NSC800525), camonsertib (NSC841442), AZD-1390 (NSC803789), olaparib (NSC753686), talazoparib (NSC767125), rucaparib (NSC756644), sotorasib (NSC818433), MRTX-1133 (NSC836407), SN-38 (NSC673596), topotecan (NSC609699), epotoside (NSC141540), doxorubicin (NSC123127), gemcitabine (NSC613327), 5-fluorouracil (NSC19893), paclitaxel (NSC125973), vemurafenib (NSC761431), MSA-2 (NSC828583), SN-011 (NSC837082), adavosertib (NSC754352), prexasertib (NSC758257), carboplatin (NSC241240) and oxaliplatin (NSC266046), were obtained from the National Cancer Institute (NCI) Developmental Therapeutics Program Chemical Repository (21). The FDA-approved anticancer drug set is available from the Developmental Therapeutics Program at https://dtp.cancer.gov/organization/dscb/obtaining/. […] The stock solutions were prepared in dimethyl sulfoxide (DMSO, Sigma-Aldrich, St. Louis, MO, cat. D2650), except for the platinum compounds which were prepared in saline (Quality Biological, Gaithersburg, MD, cat. 114-055-101), at 800-fold the tested concentration and stored at -70 degrees C prior to their use. All drugs and investigational agents were tested over a range starting from a high concentration at or near the clinical Cmax and decreasing in half-log increments. If the clinical Cmax for an agent had not been determined, the highest concentration tested was 10 microM, except for SN-38, which was tested at a high concentration of 1 microM.\nCell Culture. All cells were maintained in an incubator at 37 degrees C and 5% CO2 with 95% humidity. The PDC lines were cultured according to standard operating procedures established by the NCI PDMR (https://pdmr.cancer.gov). Table 3 of the manuscript, lists the cell lines along with the number of the three cell types plated to form the mct-spheroids and media for tumor cell growth. After thawing, all PDC lines, except 997537-175-T-J1-PDC and 415267-285-R-J2-PDC, were cultured in Matrigel-coated flasks prepared with a working solution of 1X Ham's F-12 nutrient mix, without supplementation (Thermo Fisher Scientific, cat. 11765054), 100 U/mL penicillin-streptomycin (Thermo Fisher Scientific, cat. 15140122), and 2.5% Matrigel (Corning Inc., Corning, NY, cat. 354248) for the first three passages. The two PDC lines 997537-175-T-J1-PDC and 415267-285-R-J2-PDC were cultured on uncoated flasks. The 857933-349-R-J2-PDC line was cultured in 6C/Colon 1B media containing advanced DMEM/F-12 (Thermo Fisher Scientific, cat. 12634028), 10 mM HEPES (Thermo Fisher Scientific, cat. 15630080), 1X GlutaMAX supplement (Thermo Fisher Scientific, cat. 35050061), 0.1 mg/mL primocin (InvivoGen, San Diego, CA, cat. ant-pm-2), 10% defined fetal bovine serum, heat inactivated (HyClone Laboratories Inc., Logan, UT, cat. SH30070.03HI), 50% L-WRN conditioned media (ATCC, cat. CRL-3276), 1.25 mM N-Acetyl-L-cysteine (Sigma-Aldrich, cat. A9165), 10 mM nicotinamide (Sigma-Aldrich, cat. N0636), 1X B-27 supplement (Thermo Fisher Scientific, cat. 17504044), 1X N-2 supplement (Thermo Fisher Scientific, cat. […]"}
{"smiles": "C=CCn1c(=O)c2cnc(Nc3ccc(N4CCN(C)CC4)cc3)nc2n1-c1cccc(C(C)(C)O)n1", "note": "+ Cc1cccc(N(C)C(=O)C2C(O)CCN2c2nc(C)cc(C(F)(F)F)c2C#N)c1", "values": [{"measurement": "IC50", "setting": "second compound 0.0316 µM", "value": "> 1000", "unit": "nM"}, {"measurement": "IC50", "setting": "second compound 0.1 µM", "value": "> 1000", "unit": "nM"}, {"measurement": "IC50", "setting": "second compound 0.316 µM", "value": "> 1000", "unit": "nM"}, {"measurement": "IC50", "setting": "second compound 1 µM", "value": "> 1000", "unit": "nM"}, {"measurement": "IC50", "setting": "second compound 3.16 µM", "value": "> 1000", "unit": "nM"}, {"measurement": "IC50", "setting": "second compound 10 µM", "value": "> 1000", "unit": "nM"}, {"measurement": "viability, T/C", "setting": "second compound 0.0316 µM, first compound 0.00316 µM", "value": 101, "unit": "%"}, {"measurement": "viability, T/C", "setting": "second compound 0.0316 µM, first compound 0.01 µM", "value": 100, "unit": "%"}, {"measurement": "viability, T/C", "setting": "second compound 0.0316 µM, first compound 0.0316 µM", "value": 93.9, "unit": "%"}, {"measurement": "viability, T/C", "setting": "second compound 0.0316 µM, first compound 0.1 µM", "value": 90.9, "unit": "%"}, {"measurement": "viability, T/C", "setting": "second compound 0.0316 µM, first compound 0.316 µM", "value": 100, "unit": "%"}, {"measurement": "viability, T/C", "setting": "second compound 0.0316 µM, first compound 1 µM", "value": 76.2, "unit": "%"}, {"measurement": "viability, T/C", "setting": "second compound 0.1 µM, first compound 0.00316 µM", "value": 99.4, "unit": "%"}, {"measurement": "viability, T/C", "setting": "second compound 0.1 µM, first compound 0.01 µM", "value": 109, "unit": "%"}, {"measurement": "viability, T/C", "setting": "second compound 0.1 µM, first compound 0.0316 µM", "value": 95, "unit": "%"}, {"measurement": "viability, T/C", "setting": "second compound 0.1 µM, first compound 0.1 µM", "value": 88.8, "unit": "%"}, {"measurement": "viability, T/C", "setting": "second compound 0.1 µM, first compound 0.316 µM", "value": 81.2, "unit": "%"}, {"measurement": "viability, T/C", "setting": "second compound 0.1 µM, first compound 1 µM", "value": 64.2, "unit": "%"}, {"measurement": "viability, T/C", "setting": "second compound 0.316 µM, first compound 0.00316 µM", "value": 89.4, "unit": "%"}, {"measurement": "viability, T/C", "setting": "second compound 0.316 µM, first compound 0.01 µM", "value": 113, "unit": "%"}, {"measurement": "viability, T/C", "setting": "second compound 0.316 µM, first compound 0.0316 µM", "value": 110, "unit": "%"}, {"measurement": "viability, T/C", "setting": "second compound 0.316 µM, first compound 0.1 µM", "value": 91.9, "unit": "%"}, {"measurement": "viability, T/C", "setting": "second compound 0.316 µM, first compound 0.316 µM", "value": 83.2, "unit": "%"}, {"measurement": "viability, T/C", "setting": "second compound 0.316 µM, first compound 1 µM", "value": 75, "unit": "%"}, {"measurement": "viability, T/C", "setting": "second compound 1 µM, first compound 0.00316 µM", "value": 118, "unit": "%"}, {"measurement": "viability, T/C", "setting": "second compound 1 µM, first compound 0.01 µM", "value": 109, "unit": "%"}, {"measurement": "viability, T/C", "setting": "second compound 1 µM, first compound 0.0316 µM", "value": 106, "unit": "%"}, {"measurement": "viability, T/C", "setting": "second compound 1 µM, first compound 0.1 µM", "value": 99.8, "unit": "%"}, {"measurement": "viability, T/C", "setting": "second compound 1 µM, first compound 0.316 µM", "value": 113, "unit": "%"}, {"measurement": "viability, T/C", "setting": "second compound 1 µM, first compound 1 µM", "value": 84.9, "unit": "%"}, {"measurement": "viability, T/C", "setting": "second compound 3.16 µM, first compound 0.00316 µM", "value": 93.2, "unit": "%"}, {"measurement": "viability, T/C", "setting": "second compound 3.16 µM, first compound 0.01 µM", "value": 95.6, "unit": "%"}, {"measurement": "viability, T/C", "setting": "second compound 3.16 µM, first compound 0.0316 µM", "value": 101, "unit": "%"}, {"measurement": "viability, T/C", "setting": "second compound 3.16 µM, first compound 0.1 µM", "value": 96.1, "unit": "%"}, {"measurement": "viability, T/C", "setting": "second compound 3.16 µM, first compound 0.316 µM", "value": 85.4, "unit": "%"}, {"measurement": "viability, T/C", "setting": "second compound 3.16 µM, first compound 1 µM", "value": 59.6, "unit": "%"}, {"measurement": "viability, T/C", "setting": "second compound 10 µM, first compound 0.00316 µM", "value": 111, "unit": "%"}, {"measurement": "viability, T/C", "setting": "second compound 10 µM, first compound 0.01 µM", "value": 99.5, "unit": "%"}, {"measurement": "viability, T/C", "setting": "second compound 10 µM, first compound 0.0316 µM", "value": 95.3, "unit": "%"}, {"measurement": "viability, T/C", "setting": "second compound 10 µM, first compound 0.1 µM", "value": 93.6, "unit": "%"}, {"measurement": "viability, T/C", "setting": "second compound 10 µM, first compound 0.316 µM", "value": 78.9, "unit": "%"}, {"measurement": "viability, T/C", "setting": "second compound 10 µM, first compound 1 µM", "value": 94.8, "unit": "%"}]}
